According to the supplement of paper PMC10307832:

Legend:
Experiment in all cases: relative viability (nuclei count vs DMSO), 5 days (fraction); higher = more cells survive
IPA-3 = compound: C1=CC=C2C(=C1)C=CC(=C2SSC3=C(C=CC4=CC=CC=C43)O)O [IPA-3]
Procedure, shortened: (§1)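 In 1536-well plates, lung cancer cell lines rested overnight at 37 °C before five library-drug doses (not always all listed), √10 apart, were pinned onto vehicle-anchored plates. Nuclei were counted with MetaXpress from 4× Hoechst images taken after 5 days without medium change. Viability compares treated-well with vehicle-well nuclei as a median over plates, and plates needed control CV below 25% plus at least one doubling to pass.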

Doramapimod = compound: Cc1ccc(-n2nc(C(C)(C)C)cc2NC(=O)Nc2ccc(OCCN3CCOCC3)c3ccccc23)cc1 [Doramapimod]
Procedure, shortened: as §1

RAF265 = compound: Cn1c(Nc2ccc(C(F)(F)F)cc2)nc2cc(Oc3ccnc(-c4ncc(C(F)(F)F)[nH]4)c3)ccc21 [RAF265]
Procedure, shortened: as §1

Doramapimod + Crizotinib = compound: Cc1ccc(-n2nc(C(C)(C)C)cc2NC(=O)Nc2ccc(OCCN3CCOCC3)c3ccccc23)cc1 [Doramapimod] + C[C@@H](Oc1cc(-c2cnn(C3CCNCC3)c2)cnc1N)c1c(Cl)ccc(F)c1Cl [Crizotinib] (partner 1 µM)
Procedure, shortened: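 Nuclei were stained with Hoechst during a one-step fixation (final 0.05% Triton X-100, 1% formaldehyde, 1 ug/ml Hoechst) carried out 5 days after dosing, then counted on 4× images. The cells, lung cancer lines in 1536-well plates, had been dosed by pin tool the day after seeding with one drug alone or a fixed anchor-drug dose plus five library-drug doses (not always all listed) in √10 steps. Relative viability is the nuclei count in treated wells divided by that in vehicle wells, and each value is the median of duplicate plates.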

Row | Cell Line | relative viability (IPA-3; 0.2 µM) | relative viability (IPA-3; 0.6325 µM) | relative viability (IPA-3; 2 µM) | relative viability (IPA-3; 6.325 µM) | relative viability (IPA-3; 20 µM) | relative viability (Doramapimod; 0.02 µM) | relative viability (Doramapimod; 0.06325 µM) | relative viability (Doramapimod; 0.2 µM) | relative viability (Doramapimod; 0.6325 µM) | relative viability (Doramapimod; 2 µM) | relative viability (RAF265; 0.01 µM) | relative viability (RAF265; 0.03162 µM) | relative viability (RAF265; 0.1 µM) | relative viability (RAF265; 0.3162 µM) | relative viability (RAF265; 1 µM) | relative viability (Doramapimod + Crizotinib; first compound 0.02 µM) | relative viability (Doramapimod + Crizotinib; first compound 0.06325 µM) | relative viability (Doramapimod + Crizotinib; first compound 0.2 µM) | relative viability (Doramapimod + Crizotinib; first compound 0.6325 µM) | relative viability (Doramapimod + Crizotinib; first compound 2 µM)
1 | HCC-15 | 1.17 | 0.98 | 0.931 | 0.972 | 0.998 | 0.993 | 0.99 | 0.936 | 0.74 | 0.915 | 0.99 | 1.02 | 1.01 | 0.819 | 0.684 | 0.836 | 0.731 | 0.838 | 0.887 | 0.718
2 | HCC-44 | 0.953 | 0.922 | 0.998 | 0.899 | 0.968 | 1.03 | 1.1 | 1.1 | 0.84 | 0.983 | 0.971 | 0.919 | 1.02 | 1.05 | 0.992 | 0.884 | 0.856 | 0.755 | 0.771 | 0.772
3 | HCC-78 | 1.04 | 0.907 | 1.04 | 1.04 | 0.994 | 0.962 | 1.07 | 1.06 | 1.14 | 1.02 | 0.947 | 1.12 | 1.15 | 0.927 | 0.878 | 0.356 | 0.364 | 0.336 | 0.399 | 0.358
4 | HCC-366 | 1.04 | 0.976 | 0.98 | 1.03 | 1.05 | 0.951 | 0.979 | 1 | 1.04 | 0.99 | 1.03 | 0.99 | 1.06 | 0.975 | 0.947 | 0.612 | 0.513 | 0.487 | 0.451 | 0.398
5 | HCC-827 | 1.07 | 1.05 | 1.05 | 0.955 | 0.978 | 1.02 | 1.05 | 1.07 | 0.902 | 0.863 | 1.03 | 0.963 | 1.05 | – | 0.903 | 0.95 | 0.869 | 0.949 | 0.841 | 0.666
6 | HOP-62 | 1.08 | 0.925 | 0.986 | 1 | 1.09 | 1.02 | 1.06 | 1.08 | 0.931 | 0.975 | 1.12 | 0.989 | 0.952 | 1 | 0.834 | 0.888 | 1.02 | 1.12 | 0.597 | 0.968
7 | IA-LM | 1.15 | 0.758 | 1.03 | 0.876 | 0.892 | 0.921 | 0.977 | 0.906 | 0.982 | 0.913 | 0.941 | 0.855 | 0.91 | 0.801 | 0.755 | 0.856 | – | 0.699 | 0.795 | 0.792
8 | LC-2-ad | 1.05 | 0.958 | 0.978 | 1.03 | 0.992 | 0.991 | 1.02 | 1.07 | 1.02 | 0.923 | 1.09 | 0.989 | 1.11 | 0.748 | 0.484 | 0.531 | 0.451 | 0.448 | 0.435 | 0.385
9 | LCLC-97TM1 | 1.04 | 0.868 | 0.851 | 0.908 | 0.981 | 0.916 | 1.04 | 0.961 | 0.811 | 0.86 | 1.04 | 0.899 | 0.531 | 0.637 | 0.418 | 0.326 | 0.357 | 0.31 | 0.338 | 0.209
10 | LCLC-103H | 1.12 | 0.962 | 0.876 | 0.99 | 1.07 | 1.02 | 1.01 | 0.887 | 0.988 | 0.929 | 1.01 | 1.05 | 0.919 | 0.78 | 0.72 | 1.05 | 1.06 | 1.08 | 1.06 | 0.944
11 | LK-2 | 1.06 | 1.03 | 0.995 | 1.01 | 1.19 | 0.909 | 0.981 | 0.926 | 0.741 | 0.849 | 0.963 | 1 | 1.09 | 1.07 | 0.714 | 0.246 | 0.266 | 0.207 | 0.207 | 0.205
12 | NCI-H522 | 1.05 | 0.889 | 0.978 | 1.07 | 1.08 | 0.946 | 0.978 | 0.79 | 0.925 | 0.86 | 1.15 | 1.1 | 0.941 | 0.812 | 0.961 | – | – | – | – | –
13 | NCI-H1395 | 1.04 | 0.947 | 0.879 | 0.918 | 1.04 | 1.01 | 1.18 | 1.07 | 0.94 | 0.831 | 1.03 | 0.866 | 0.899 | 0.774 | 0.689 | – | – | – | – | –
14 | NCI-H1623 | 1.07 | 0.943 | 0.971 | 0.951 | 0.993 | 0.986 | 0.982 | 0.944 | 0.775 | 0.88 | 1.06 | 0.945 | 1.09 | 0.456 | 0.798 | – | – | – | – | –
15 | NCI-H1648 | 1.25 | 0.889 | 1.02 | 0.65 | 0.793 | 0.925 | 1.19 | 0.898 | 0.835 | 0.719 | 0.936 | 0.842 | 0.919 | 0.593 | 0.589 | – | – | – | – | –
16 | NCI-H1793 | 1.14 | 0.768 | 0.884 | 1.09 | 1.04 | 0.894 | 0.843 | 0.896 | 0.94 | 0.884 | 1.1 | 0.856 | 0.731 | 0.321 | 0.48 | – | – | – | – | –
17 | NCI-H2342 | 1.07 | 1.08 | 0.975 | 1.11 | 1.14 | 1.05 | 0.918 | 0.998 | 1.09 | 0.933 | 0.937 | 1.06 | 1.04 | 0.895 | 0.85 | – | – | – | – | –
18 | SW 900 | 1.13 | 0.698 | 0.686 | 0.775 | 0.775 | 0.893 | 1.03 | 0.941 | 0.945 | 0.737 | 1.06 | 0.792 | 0.856 | 0.679 | 0.527 | – | – | – | – | –
